Assay results as given in patent US20240018153A1, “BENZENESULFONAMIDE DERIVATIVES AND USES THEREOF” (2692372 ONTARIO, INC., priority 2020, published 2024).
pIC50: −log10 of the molar value.

Legend:
Assay type in all cases: biochemical
FGFR4 = FGFR4 (Homo sapiens (Human), UniProt P22455); experiment: HTRF KinEASE-TK kinase assay, FGFR4; details: for pIC50: dose response; for remaining activity at 1 µM: read-out: % FGFR4 Remaining activity vs DMSO (1 μM, 3 h); for remaining activity at 10 µM: read-out: % FGFR4 Remaining activity vs DMSO (10 μM, 3 h)
Sequence of FGFR4 (P22455 22-802): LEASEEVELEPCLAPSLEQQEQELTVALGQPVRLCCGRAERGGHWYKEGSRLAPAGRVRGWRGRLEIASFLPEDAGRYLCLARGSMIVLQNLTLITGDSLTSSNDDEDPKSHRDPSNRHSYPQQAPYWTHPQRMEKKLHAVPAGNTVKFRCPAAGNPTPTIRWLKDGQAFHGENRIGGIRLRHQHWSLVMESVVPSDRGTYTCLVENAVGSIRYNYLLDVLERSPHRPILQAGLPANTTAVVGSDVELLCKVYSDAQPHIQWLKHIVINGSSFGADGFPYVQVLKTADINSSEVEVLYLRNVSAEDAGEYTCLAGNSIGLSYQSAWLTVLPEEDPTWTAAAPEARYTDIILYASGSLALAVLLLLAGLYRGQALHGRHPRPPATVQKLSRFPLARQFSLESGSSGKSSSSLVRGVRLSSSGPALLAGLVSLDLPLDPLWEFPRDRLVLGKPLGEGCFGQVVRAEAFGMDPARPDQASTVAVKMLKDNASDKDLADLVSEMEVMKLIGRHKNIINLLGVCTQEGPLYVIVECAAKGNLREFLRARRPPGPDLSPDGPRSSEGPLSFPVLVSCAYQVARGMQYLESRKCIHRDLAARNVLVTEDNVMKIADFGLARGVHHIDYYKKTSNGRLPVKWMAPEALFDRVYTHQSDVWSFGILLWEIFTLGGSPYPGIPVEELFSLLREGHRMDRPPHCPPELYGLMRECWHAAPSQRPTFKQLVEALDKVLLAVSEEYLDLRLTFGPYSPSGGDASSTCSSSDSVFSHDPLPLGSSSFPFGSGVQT
Description: (§1) Kinase activity was monitored using a HTRF® KinEASE-TK kit from Cisbio (62TK0PEC). […] FGFR-4 was purchased from Promega. 0.333 ng/ul FGFR4 (5.12 nM) was preincubated in the absence or presence of inhibitor at room temperature for 3 hours. Reaction with substrate was then initiated by adding biotinylated substrate and ATP. […] The reaction was terminated by adding 31.25 nM SA-XL665 and 100 fold diluted europium labelled antibody (Eu-Ab), diluted in 1× detection buffer that contained EDTA. After 60 min of incubation, the fluorescence emission was measured at 620 nm and 665 nm. The ratio of Em 665 nm to Em 620 nm was proportional to the amount of substrate phosphorylated by the kinase.

BTK = BTK (Homo sapiens (Human), UniProt Q06187); experiment: HTRF KinEASE-TK kinase assay, BTK; details: 3 h preincubation; for remaining activity at 1 µM: 1 μM compound, read-out: % BTK Remaining activity vs DMSO (1 μM, 3 h); for remaining activity at 10 µM: 10 μM compound, read-out: % BTK Remaining activity vs DMSO (10 μM, 3 h)
Sequence of BTK (Q06187 whole entry): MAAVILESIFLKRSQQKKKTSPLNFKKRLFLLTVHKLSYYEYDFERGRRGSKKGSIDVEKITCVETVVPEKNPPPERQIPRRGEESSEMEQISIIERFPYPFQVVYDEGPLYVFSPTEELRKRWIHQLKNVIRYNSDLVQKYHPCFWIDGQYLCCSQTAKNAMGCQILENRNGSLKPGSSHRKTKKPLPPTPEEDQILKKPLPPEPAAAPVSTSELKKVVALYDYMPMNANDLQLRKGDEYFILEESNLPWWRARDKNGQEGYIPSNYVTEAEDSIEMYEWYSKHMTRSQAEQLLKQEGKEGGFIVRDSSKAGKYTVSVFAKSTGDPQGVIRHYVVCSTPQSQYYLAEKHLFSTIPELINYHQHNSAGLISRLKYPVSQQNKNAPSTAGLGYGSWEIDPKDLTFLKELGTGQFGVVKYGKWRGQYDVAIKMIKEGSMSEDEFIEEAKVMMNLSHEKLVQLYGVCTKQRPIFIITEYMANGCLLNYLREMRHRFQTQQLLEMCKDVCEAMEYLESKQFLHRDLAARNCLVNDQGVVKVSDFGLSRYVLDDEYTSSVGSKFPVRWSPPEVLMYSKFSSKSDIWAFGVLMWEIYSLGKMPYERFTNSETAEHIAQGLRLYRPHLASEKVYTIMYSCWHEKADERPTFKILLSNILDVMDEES
Description: Kinase activity was monitored using a HTRF® KinEASE-TK kit from Cisbio (62TK0PEC). For BTK, the 1× kinase buffer was supplemented with 10 mM MnCl2, 5 mM MgCl2, 1 uM ATPγS, 1 mM TCEP and 100 fold diluted Supplementary Enzyme Buffer. BTK was purchased from Promega. […] Reaction with substrate was then initiated by adding biotinylated substrate and ATP and the reaction was allowed to proceed for 45 min. […] After 60 min of incubation, the fluorescence emission was measured at 620 nm and 665 nm. The ratio of Em 665 nm to Em 620 nm was proportional to the amount of substrate phosphorylated by the kinase.

JAK3 = JAK3 (Homo sapiens (Human), UniProt P52333); experiment: HTRF KinEASE-TK kinase assay, JAK3; details: for remaining activity at 1 µM: read-out: % JAK3 Remaining activity vs DMSO (1 μM, 3 h); for remaining activity at 10 µM: read-out: % JAK3 Remaining activity vs DMSO (10 μM, 3 h)
Sequence of JAK3 (P52333 781-1124): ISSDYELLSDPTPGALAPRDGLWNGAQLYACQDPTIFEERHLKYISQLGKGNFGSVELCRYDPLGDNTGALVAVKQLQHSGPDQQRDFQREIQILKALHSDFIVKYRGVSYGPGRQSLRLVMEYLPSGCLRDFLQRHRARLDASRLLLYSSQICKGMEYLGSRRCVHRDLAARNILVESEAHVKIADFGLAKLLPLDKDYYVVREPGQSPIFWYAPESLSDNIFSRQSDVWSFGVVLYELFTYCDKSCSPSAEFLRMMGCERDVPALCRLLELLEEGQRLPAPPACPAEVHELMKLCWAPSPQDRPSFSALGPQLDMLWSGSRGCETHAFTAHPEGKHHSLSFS
Description: as §1, with “JAK-3” for “FGFR-4”, “0.0133” for “0.333”, “JAK3 (0.21” for “FGFR4 (5.12”

BMX = BMX (Homo sapiens (Human), UniProt P51813); experiment: HTRF KinEASE-TK kinase assay, BMX; details: for remaining activity at 1 µM: 1 uM compound; for remaining activity at 1 µM / remaining activity at 10 µM: 3 h preincubation; for remaining activity at 10 µM: 10 uM compound
Sequence of BMX (P51813 whole entry): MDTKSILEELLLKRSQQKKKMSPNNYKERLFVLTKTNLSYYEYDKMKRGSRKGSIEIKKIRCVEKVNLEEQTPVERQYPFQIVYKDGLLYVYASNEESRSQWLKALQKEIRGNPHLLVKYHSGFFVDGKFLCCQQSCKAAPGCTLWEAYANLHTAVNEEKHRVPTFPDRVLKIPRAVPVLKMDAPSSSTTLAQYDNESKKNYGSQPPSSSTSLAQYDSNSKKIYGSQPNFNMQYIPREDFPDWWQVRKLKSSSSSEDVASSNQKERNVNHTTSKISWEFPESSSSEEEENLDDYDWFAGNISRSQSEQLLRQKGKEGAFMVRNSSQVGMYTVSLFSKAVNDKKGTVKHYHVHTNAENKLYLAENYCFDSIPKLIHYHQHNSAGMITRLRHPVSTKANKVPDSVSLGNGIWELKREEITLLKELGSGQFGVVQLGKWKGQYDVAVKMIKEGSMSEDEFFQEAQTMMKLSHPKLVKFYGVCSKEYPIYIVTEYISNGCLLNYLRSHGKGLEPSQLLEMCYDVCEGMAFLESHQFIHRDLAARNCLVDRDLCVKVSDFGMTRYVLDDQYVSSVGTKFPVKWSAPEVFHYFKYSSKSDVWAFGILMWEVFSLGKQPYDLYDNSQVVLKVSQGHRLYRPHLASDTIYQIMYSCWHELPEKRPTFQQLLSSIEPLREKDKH
Description: as §1, with “BMX” for “FGFR-4”, “BMX (3.03” for “FGFR4 (5.12”, “The reaction” for “Reaction”, “Reaction” for “The reaction”

EGFR = EGFR (Homo sapiens (Human), UniProt P00533); experiment: HTRF KinEASE-TK kinase assay, EGFR; details: 3 h preincubation; for remaining activity at 1 µM: 1 μM compound, read-out: % EGFR Remaining activity vs DMSO (1 μM, 3 h); for remaining activity at 10 µM: 10 μM compound, read-out: % EGFR Remaining activity vs DMSO (10 μM, 3 h); for pIC50: dose response, read-out: EGFR Inhibition IC50
Sequence of EGFR (P00533 25-1210): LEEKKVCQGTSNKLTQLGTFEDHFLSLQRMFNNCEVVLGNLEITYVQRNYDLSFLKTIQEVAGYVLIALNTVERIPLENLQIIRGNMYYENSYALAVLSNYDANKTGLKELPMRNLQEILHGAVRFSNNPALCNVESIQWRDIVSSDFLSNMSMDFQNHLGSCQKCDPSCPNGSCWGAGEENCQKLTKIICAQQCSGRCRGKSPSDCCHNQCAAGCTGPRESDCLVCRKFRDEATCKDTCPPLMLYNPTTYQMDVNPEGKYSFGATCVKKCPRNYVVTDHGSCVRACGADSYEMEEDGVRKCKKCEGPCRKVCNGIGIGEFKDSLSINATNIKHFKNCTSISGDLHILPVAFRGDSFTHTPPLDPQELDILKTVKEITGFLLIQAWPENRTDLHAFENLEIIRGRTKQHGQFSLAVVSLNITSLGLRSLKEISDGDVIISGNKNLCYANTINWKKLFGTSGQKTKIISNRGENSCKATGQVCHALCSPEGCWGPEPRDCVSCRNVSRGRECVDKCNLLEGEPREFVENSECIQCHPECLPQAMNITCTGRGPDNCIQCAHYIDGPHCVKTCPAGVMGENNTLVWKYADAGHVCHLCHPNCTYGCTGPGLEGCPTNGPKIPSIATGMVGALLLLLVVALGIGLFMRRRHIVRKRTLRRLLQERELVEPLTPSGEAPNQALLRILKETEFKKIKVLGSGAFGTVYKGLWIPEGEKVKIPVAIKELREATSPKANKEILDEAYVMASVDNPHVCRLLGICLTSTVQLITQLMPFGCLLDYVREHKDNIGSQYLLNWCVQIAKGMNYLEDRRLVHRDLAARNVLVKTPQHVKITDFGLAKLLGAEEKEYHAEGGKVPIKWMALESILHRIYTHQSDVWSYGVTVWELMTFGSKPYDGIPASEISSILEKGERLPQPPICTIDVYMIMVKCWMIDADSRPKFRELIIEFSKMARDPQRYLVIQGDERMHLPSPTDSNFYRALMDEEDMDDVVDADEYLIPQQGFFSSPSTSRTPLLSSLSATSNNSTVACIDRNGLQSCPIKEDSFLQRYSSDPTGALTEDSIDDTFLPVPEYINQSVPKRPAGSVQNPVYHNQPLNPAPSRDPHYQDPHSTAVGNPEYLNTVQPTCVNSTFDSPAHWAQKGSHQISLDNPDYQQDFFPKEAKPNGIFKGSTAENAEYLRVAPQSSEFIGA
Description: Kinase activity was monitored using a HTRF® KinEASE-TK kit from Cisbio (62TK0PEC). The buffer used was 1× kinase buffer supplemented with 2 mM MnCl2, 5 mM MgCl2, 1 mM TCEP and 100× diluted Supplementary Enzyme Buffer. EGFR was purchased from Promega. […] Reaction with substrate was then initiated by adding biotinylated substrate and ATP. […] After 60 min of incubation, the fluorescence emission was measured at 620 nm and 665 nm. The ratio of Em 665 nm to Em 620 nm was proportional to the amount of substrate phosphorylated by the kinase.
For initial screening, enzymes were pre incubated with compounds at 2 different concentrations (1 and 10 uM final) and 0.5% DMSO.

RIPK2 = RIPK2 (Homo sapiens (Human), UniProt O43353); experiment: In vitro RIPK2 inhibition; details: for remaining activity at 1 µM: read-out: % RIPK2 Remaining activity vs DMSO (1 μM, 3 h); for remaining activity at 10 µM: read-out: % RIPK2 Remaining activity vs DMSO (10 μM, 3 h)
Sequence of RIPK2 (O43353 whole entry, species assumed): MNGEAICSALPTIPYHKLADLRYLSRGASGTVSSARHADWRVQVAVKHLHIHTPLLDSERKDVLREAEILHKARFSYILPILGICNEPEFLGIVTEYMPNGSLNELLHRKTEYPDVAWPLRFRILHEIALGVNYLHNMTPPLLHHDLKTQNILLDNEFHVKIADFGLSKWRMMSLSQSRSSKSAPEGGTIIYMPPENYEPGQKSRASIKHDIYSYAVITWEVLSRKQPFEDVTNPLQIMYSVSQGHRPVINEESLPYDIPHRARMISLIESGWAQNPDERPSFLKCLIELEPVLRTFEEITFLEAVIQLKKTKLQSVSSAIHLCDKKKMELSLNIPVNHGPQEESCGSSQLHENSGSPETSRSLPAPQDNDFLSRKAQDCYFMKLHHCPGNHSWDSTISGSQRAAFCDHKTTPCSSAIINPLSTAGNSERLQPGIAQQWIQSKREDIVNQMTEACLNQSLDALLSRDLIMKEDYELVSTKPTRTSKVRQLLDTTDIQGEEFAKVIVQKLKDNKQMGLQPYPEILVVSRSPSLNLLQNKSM

SMILES	pIC50 (FGFR4)	pIC50 (BTK; dose response, read-out: BTK Inhibition IC50)	remaining activity at 1 µM (JAK3) [%]	remaining activity at 10 µM (JAK3) [%]	remaining activity at 1 µM (BMX) [%]	remaining activity at 10 µM (BMX) [%]	remaining activity at 1 µM (EGFR) [%]	remaining activity at 10 µM (EGFR) [%]	pIC50 (EGFR)	remaining activity at 1 µM (FGFR4) [%]	remaining activity at 10 µM (FGFR4) [%]	remaining activity at 1 µM (BTK) [%]	remaining activity at 10 µM (BTK) [%]	pIC50 (JAK3; dose response)	remaining activity at 1 µM (RIPK2) [%]	remaining activity at 10 µM (RIPK2) [%]	pIC50 (BMX; dose response)
O=S(=O)(Nc1cc2c(Nc3ccc(F)c(Cl)c3)ncnc2cc1O[C@H]1CCOC1)c1c(F)c(F)c(F)c(F)c1C(F)(F)F [Compound I-1, (S)—N-(4-((3-chloro-4-fluorophenyl)amino)-7-((tetrahydrofuran-3-yl)oxy)quinazolin-6-yl)-2,3,4,5-tetrafluoro-6-(trifluoromethyl)benzenesulfonamide]			50 to 90	< 50	50 to 90	50 to 90	< 50	< 50	> 6.00	> 90	> 90	50 to 90	< 50				
CS(=O)(=O)c1c(F)c(F)c(F)c(F)c1C(=O)N1CC(n2nc(-c3ccc(Oc4ccccc4)cc3)c3c(N)ncnc32)C1 [Compound I-27, (3-(4-amino-3-(4-phenoxyphenyl)-1H-pyrazolo[3,4-d]pyrimidin-1-yl)azetidin-1-yl)(2,3,4,5-tetrafluoro-6-(methylsulfonyl)phenyl)methanone]			< 50	< 50	< 50	< 50	< 50	< 50	> 6.00	50 to 90	< 50	< 50	< 50	> 6.00	50 to 90	> 90	
CN(CCn1nc(-c2ccc(Oc3ccccc3)cc2)c2c(N)ncnc21)C(=O)c1c(F)c(F)c(F)c(F)c1S(C)(=O)=O [Compound I-28, N-(2-(4-amino-3-(4-phenoxyphenyl)-1H-pyrazolo[3,4-d]pyrimidin-1-yl)ethyl)-2,3,4,5-tetrafluoro-N-methyl-6-(methylsulfonyl)benzamide]	> 6.00		> 90	< 50	< 50	< 50	< 50	< 50		< 50	< 50	< 50	< 50		50 to 90	> 90	> 6.00
CN(C)S(=O)(=O)c1c(F)c(F)c(F)c(F)c1C(=O)N1CC(n2nc(-c3ccc(Oc4ccccc4)cc3)c3c(N)ncnc32)C1 [Compound I-29, 2-(3-(4-amino-3-(4-phenoxyphenyl)-1H-pyrazolo[3,4-d]pyrimidin-1-yl)azetidine-1-carbonyl)-3,4,5,6-tetrafluoro-N,N-dimethylbenzenesulfonamide]			< 50	< 50	< 50	< 50	< 50	< 50		50 to 90	> 90	< 50	< 50		50 to 90	50 to 90	

Other lines, results leading:

pIC50 (FGFR4)	pIC50 (BTK; dose response, read-out: BTK Inhibition IC50)	remaining activity at 1 µM (JAK3) [%]	remaining activity at 10 µM (JAK3) [%]	remaining activity at 1 µM (BMX) [%]	remaining activity at 10 µM (BMX) [%]	remaining activity at 1 µM (EGFR) [%]	remaining activity at 10 µM (EGFR) [%]	pIC50 (EGFR)	remaining activity at 1 µM (FGFR4) [%]	remaining activity at 10 µM (FGFR4) [%]	remaining activity at 1 µM (BTK) [%]	remaining activity at 10 µM (BTK) [%]	pIC50 (JAK3; dose response)	remaining activity at 1 µM (RIPK2) [%]	remaining activity at 10 µM (RIPK2) [%]	pIC50 (BMX; dose response)	SMILES
> 6.00	> 6.00																COCCOc1ccc(Nc2ncc(F)c(Nc3cccc(NC(=O)c4c(F)c(F)c(F)c(F)c4[S@+](C)[O-])c3)n2)cc1 (racemic) [Compound I-62, 2,3,4,5-tetrafluoro-N-(3-((5-fluoro-2-((4-(2-methoxyethoxy)phenyl)amino)pyrimidin-4-yl)amino)phenyl)-6-(methylsulfinyl)benzamide]
		> 90	> 90	< 50	< 50	> 90	> 90		50 to 90	> 90				50 to 90	> 90		CN(C)S(=O)(=O)c1c(F)c(F)c(F)c(F)c1C(=O)N1CCC[C@@H](n2nc(-c3ccc(Oc4ccccc4)cc3)c3c(N)ncnc32)C1 [Compound I-31, (R)-2-(3-(4-amino-3-(4-phenoxyphenyl)-1H-pyrazolo[3,4-d]pyrimidin-1-yl)piperidine-1-carbonyl)-3,4,5,6-tetrafluoro-N,N-dimethylbenzenesulfonamide]
		> 90	> 90	50 to 90	> 90	> 90	50 to 90		> 90	> 90	> 90	> 90					CN(CCn1nc(-c2ccc(Oc3ccccc3)cc2)c2c(N)ncnc21)c1c(F)c(F)c(F)c(F)c1S(C)(=O)=O [Compound I-43, 1-(2-(methyl(2,3,4,5-tetrafluoro-6-(methylsulfonyl)phenyl)amino)ethyl)-3-(4-phenoxyphenyl)-1H-pyrazolo[3,4-d]pyrimidin-4-amine]
		> 90	< 50	< 50	< 50	> 90	< 50		> 90	< 50	< 50	< 50					CS(=O)(=O)c1c(F)c(F)c(F)c(F)c1CNCCn1nc(-c2ccc(Oc3ccccc3)cc2)c2c(N)ncnc21 [Compound I-44, 3-(4-phenoxyphenyl)-1-(2-((2,3,4,5-tetrafluoro-6-(methylsulfonyl)benzyl)amino)ethyl)-1H-pyrazolo[3,4-d]pyrimidin-4-amine]
> 6.00		> 90	< 50	< 50	< 50	> 90	> 90		< 50	< 50	< 50	< 50					COCCOc1ccc(Nc2ncc(F)c(Nc3cccc(NS(=O)(=O)c4c(F)c(F)c(F)c(F)c4CF)c3)n2)cc1 [Compound I-58, 2,3,4,5-tetrafluoro-N-(3-((5-fluoro-2-((4-(2-methoxyethoxy)phenyl)amino)pyrimidin-4-yl)amino)phenyl)-6-(fluoromethyl)benzenesulfonamide]
